Patent publication US12662479B2 (Foghorn Therapeutics Inc., priority 2020, dated 2026)

Assays:
HiBit-BRM fusion protein = target: T1, HiBit-BRM fusion protein (Homo sapiens, UniProt P51531); experiment: HiBiT-BRM cell-based degradation assay (Nano-Glo HiBiT Lytic Detection, 24 h); settings: HeLa cells expressing HiBiT-BRM; for DC50: read-out: BRM HiBit Degradation IC50; for BRM HiBit Degradation Maximum measured: top dose 30 μM
T1 construct: expressed in transfected cells
How it was run: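 HeLa cells stably expressing HiBiT-BRM were treated for 24 h with compounds (10-point 3-fold dilutions, 30 μM final top dose, in duplicate). HiBiT was detected by lytic LgBiT complementation luminescence. % degradation was normalized to DMSO (high control) and 2 μM of a reference BRM/BRG1 degrader (low control).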

[1] = target: T2, HiBit-BRG1 fusion protein (Homo sapiens, UniProt P51532); experiment: HiBiT-BRG1 cell-based degradation assay (Nano-Glo HiBiT Lytic Detection, 24 h); settings: HeLa cells expressing HiBit-BRG1 and LgBit; for DC50: read-out: BRG1 HiBit Degradation IC50; for Dmax: HeLa, top dose 30 μM, read-out: BRG1 HiBit Degradation Maximum measured
T2 construct: expressed in transfected cells
T2 sequence (P51532 whole entry, the tested form may be a part): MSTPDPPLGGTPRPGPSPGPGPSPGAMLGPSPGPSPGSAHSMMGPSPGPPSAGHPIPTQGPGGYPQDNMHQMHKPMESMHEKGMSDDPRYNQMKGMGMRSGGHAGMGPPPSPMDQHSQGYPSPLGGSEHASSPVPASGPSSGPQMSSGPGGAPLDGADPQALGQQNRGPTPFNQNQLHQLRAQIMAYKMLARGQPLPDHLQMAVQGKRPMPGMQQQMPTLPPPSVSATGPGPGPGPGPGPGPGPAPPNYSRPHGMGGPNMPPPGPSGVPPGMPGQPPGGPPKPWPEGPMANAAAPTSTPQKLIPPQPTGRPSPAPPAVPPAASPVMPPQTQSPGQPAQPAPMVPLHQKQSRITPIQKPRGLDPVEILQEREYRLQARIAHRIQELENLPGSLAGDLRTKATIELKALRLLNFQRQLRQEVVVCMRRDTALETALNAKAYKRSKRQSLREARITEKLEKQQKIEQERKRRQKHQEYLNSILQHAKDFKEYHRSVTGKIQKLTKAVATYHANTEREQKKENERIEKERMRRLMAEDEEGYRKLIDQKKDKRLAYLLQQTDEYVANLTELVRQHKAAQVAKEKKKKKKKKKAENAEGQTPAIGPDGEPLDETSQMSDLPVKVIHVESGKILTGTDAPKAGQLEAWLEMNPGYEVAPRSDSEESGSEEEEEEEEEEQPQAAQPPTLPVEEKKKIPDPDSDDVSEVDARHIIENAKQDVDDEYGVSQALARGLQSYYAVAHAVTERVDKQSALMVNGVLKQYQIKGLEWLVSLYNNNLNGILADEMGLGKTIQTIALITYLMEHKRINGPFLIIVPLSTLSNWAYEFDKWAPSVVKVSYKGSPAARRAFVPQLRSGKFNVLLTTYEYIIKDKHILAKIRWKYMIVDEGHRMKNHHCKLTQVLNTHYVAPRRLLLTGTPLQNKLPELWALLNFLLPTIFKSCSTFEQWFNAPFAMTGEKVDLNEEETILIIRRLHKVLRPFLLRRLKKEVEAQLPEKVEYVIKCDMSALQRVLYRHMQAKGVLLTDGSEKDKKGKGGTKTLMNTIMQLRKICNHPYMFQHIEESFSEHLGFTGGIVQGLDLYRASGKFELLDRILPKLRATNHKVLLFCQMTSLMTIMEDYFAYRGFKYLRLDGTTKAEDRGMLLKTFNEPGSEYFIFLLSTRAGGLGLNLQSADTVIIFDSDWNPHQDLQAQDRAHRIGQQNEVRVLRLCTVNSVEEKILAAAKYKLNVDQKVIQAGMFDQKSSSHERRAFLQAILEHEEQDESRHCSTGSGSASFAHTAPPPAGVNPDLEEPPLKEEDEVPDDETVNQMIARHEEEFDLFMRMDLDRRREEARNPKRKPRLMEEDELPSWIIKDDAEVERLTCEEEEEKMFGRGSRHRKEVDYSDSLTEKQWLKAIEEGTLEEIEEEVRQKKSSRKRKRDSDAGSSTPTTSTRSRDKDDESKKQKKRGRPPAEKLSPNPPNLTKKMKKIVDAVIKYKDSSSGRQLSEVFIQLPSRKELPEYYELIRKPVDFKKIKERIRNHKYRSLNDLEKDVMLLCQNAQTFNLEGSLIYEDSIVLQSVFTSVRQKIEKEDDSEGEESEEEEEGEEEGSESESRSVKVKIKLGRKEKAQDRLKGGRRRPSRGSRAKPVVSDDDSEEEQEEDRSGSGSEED
How it was run: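 Stable HeLa line expressing HiBiT-BRG1 and LgBiT, seeded at 5000 cells/well; luminescence read after lytic Nano-Glo HiBiT reagent and 10 min shaking at RT. % degradation normalised between DMSO (high control) and 2 μM reference BRM/BRG1 degrader (low control).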

T1 sequence (P51531 whole entry, the tested form may be a part): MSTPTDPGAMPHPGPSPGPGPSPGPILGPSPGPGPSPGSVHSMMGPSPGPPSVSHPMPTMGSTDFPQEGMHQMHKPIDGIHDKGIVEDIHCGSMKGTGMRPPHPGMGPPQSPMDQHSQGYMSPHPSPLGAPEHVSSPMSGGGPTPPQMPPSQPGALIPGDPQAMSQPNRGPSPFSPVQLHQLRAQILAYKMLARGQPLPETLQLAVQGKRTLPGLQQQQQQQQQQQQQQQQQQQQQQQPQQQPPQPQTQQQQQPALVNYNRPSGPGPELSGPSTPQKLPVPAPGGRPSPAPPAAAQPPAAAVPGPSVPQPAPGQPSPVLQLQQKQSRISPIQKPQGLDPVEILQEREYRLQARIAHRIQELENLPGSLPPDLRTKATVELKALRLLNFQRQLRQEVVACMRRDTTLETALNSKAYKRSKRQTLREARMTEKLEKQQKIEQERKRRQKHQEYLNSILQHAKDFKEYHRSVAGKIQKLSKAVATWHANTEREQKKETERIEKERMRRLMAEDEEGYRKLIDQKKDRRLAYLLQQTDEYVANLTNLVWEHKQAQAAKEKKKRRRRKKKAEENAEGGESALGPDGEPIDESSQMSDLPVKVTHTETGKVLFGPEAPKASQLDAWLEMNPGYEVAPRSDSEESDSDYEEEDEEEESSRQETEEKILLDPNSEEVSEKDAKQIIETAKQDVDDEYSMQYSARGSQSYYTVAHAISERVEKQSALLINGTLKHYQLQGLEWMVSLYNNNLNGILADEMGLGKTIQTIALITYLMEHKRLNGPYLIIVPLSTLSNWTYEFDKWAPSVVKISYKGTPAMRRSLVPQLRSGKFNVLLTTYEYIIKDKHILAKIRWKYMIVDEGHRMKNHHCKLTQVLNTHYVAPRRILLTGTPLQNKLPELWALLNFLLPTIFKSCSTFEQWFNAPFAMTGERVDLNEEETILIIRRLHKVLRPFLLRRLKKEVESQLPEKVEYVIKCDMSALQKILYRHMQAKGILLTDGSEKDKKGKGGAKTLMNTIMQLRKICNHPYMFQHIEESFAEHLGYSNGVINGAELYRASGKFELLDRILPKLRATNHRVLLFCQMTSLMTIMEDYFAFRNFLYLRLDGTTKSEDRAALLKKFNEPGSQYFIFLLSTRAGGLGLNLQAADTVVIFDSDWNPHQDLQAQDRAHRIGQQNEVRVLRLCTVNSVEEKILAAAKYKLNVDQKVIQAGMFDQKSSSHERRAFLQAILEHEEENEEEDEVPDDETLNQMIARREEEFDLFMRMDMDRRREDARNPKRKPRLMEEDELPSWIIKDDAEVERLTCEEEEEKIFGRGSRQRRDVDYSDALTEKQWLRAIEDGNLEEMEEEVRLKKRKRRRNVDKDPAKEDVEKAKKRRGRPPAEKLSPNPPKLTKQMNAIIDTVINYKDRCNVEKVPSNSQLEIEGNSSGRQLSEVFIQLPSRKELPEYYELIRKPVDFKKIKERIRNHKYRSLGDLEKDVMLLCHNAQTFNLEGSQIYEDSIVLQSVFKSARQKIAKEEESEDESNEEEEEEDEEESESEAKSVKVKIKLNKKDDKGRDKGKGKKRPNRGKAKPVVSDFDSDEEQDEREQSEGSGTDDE

Q: What does the source list for `CS(=O)(=O)n1ccc(C(=O)N[C@@H](COCc2ccc(C(=O)NCCOCc3cccc(COCCOc4ccc5c(c4)C(=O)N(C4CCC(=O)NC4=O)C5=O)c3)cc2)C(=O)Nc2nc(-c3ccccc3)cs2)c1` (stereo partly drawn) [Compound 237, N-[2-([3-[(2-[[2-(2,6-dioxopiperidin-3-yl)-1,3-dioxoisoindol-5-yl]oxy]ethoxy)methyl]phenyl]methoxy)ethyl]-4-[[(2S)-2-[(1-methanesulfonylpyrrol-3-yl)formamido]-2-[(4-phenyl-1,3-thiazol-2-yl)carbamoyl]ethoxy]methyl]benzamide]?
A: DC50 (HiBit-BRM fusion protein): 0.1 to 1 µM; BRM HiBit Degradation Maximum measured (HiBit-BRM fusion protein): B (‘B’ = Maximum degradation ≥50% and ≤75%); DC50 [1]: 0.1 to 1 µM; Dmax [1]: 50 to 75%

Q: `CS(=O)(=O)n1ccc(C(=O)NCC(=O)Nc2nc(-c3cccc(-c4ccnc(C5(C(=O)N6CC(COc7cccc8c7C(=O)N(C7CCC(=O)NC7=O)C8=O)C6)CC5)c4)c3)cs2)c1` (centres unmarked) [Compound 109, N-[4-[3-(2-[1-[3-([[2-(2,6-dioxopiperidin-3-yl)-1,3-dioxoisoindol-4-yl]oxy]methyl)azetidine-1-carbonyl]cyclopropyl]pyridin-4-yl)phenyl]-1,3-thiazol-2-yl]-2-[(1-methanesulfonylpyrrol-3-yl)formamido]acetamide] was tested. Which DC50 (HiBit-BRM fusion protein) did it give?
A: > 10 µM

Q: And the “BRM HiBit Degradation Maximum measured” value (HiBit-BRM fusion protein)?
A: C (‘C’ = Maximum degradation <50%)

Q: And the DC50 [1]?
A: > 10 µM

Q: And the Dmax [1]?
A: < 50%

Q: What does the source list for `CS(=O)(=O)n1ccc(C(=O)N[C@@H](COCc2ccc(C(=O)N3CCC(CN4CCN(c5ccc6c(c5)C(=O)N(C5CCC(=O)NC5=O)C6=O)CC4)CC3)cc2)C(=O)Nc2nc(-c3ccccc3)cs2)c1` (stereo partly drawn) [Compound 192, (2S)-3-([4-[4-([4-[2-(2,6-dioxopiperidin-3-yl)-1,3-dioxoisoindol-5-yl]piperazin-1-yl]methyl)piperidine-1-carbonyl]phenyl]methoxy)-2-[(1-methanesulfonylpyrrol-3-yl)formamido]-N-(4-phenyl-1,3-thiazol-2-yl)propanamide; formic acid]?
A: DC50 (HiBit-BRM fusion protein): > 10 µM; BRM HiBit Degradation Maximum measured (HiBit-BRM fusion protein): C (‘C’ = Maximum degradation <50%); DC50 [1]: > 10 µM; Dmax [1]: < 50%

Q: How did the DC50 (HiBit-BRM fusion protein) turn out when `CS(=O)(=O)n1ccc(C(=O)N[C@@H](CCCCNC(=O)CCN2CC3(C2)CN(c2ccc4c(c2)C(=O)N(C2CCC(=O)NC2=O)C4=O)C3)C(=O)Nc2nc(-c3ccccc3)cs2)c1` (stereo partly drawn) [Compound 294, (2S)-6-(3-[6-[2-(2,6-dioxopiperidin-3-yl)-1,3-dioxoisoindol-5-yl]-2,6-diazaspiro[3.3]heptan-2-yl]propanamido)-2-[(1-methanesulfonylpyrrol-3-yl)formamido]-N-(4-phenyl-1,3-thiazol-2-yl)hexanamide] was run?
A: > 10 µM

Q: And the “BRM HiBit Degradation Maximum measured” value (HiBit-BRM fusion protein)?
A: C (‘C’ = Maximum degradation <50%)

Q: And the DC50 [1]?
A: > 10 µM

Q: What about the Dmax [1] of the same compound?
A: < 50%

Q: Which results are given for `CS(=O)(=O)n1ccc(C(=O)N[C@@H](COCc2ccc(C(=O)NCCC3CCN(c4ccc5c(c4)C(=O)N(C4CCC(=O)NC4=O)C5=O)CC3)cc2)C(=O)Nc2nc(-c3ccccc3)cs2)c1` (stereo partly drawn) [Compound 245, N-(2-[1-[2-(2,6-dioxopiperidin-3-yl)-1,3-dioxoisoindol-5-yl]piperidin-4-yl]ethyl)-4-[[(2S)-2-[(1-methanesulfonylpyrrol-3-yl)formamido]-2-[(4-phenyl-1,3-thiazol-2-yl)carbamoyl]ethoxy]methyl]benzamide]?
A: DC50 (HiBit-BRM fusion protein): < 0.1 µM; BRM HiBit Degradation Maximum measured (HiBit-BRM fusion protein): A (‘A’ = Maximum degradation >75%); DC50 [1]: < 0.1 µM; Dmax [1]: > 75%

Q: How did the DC50 (HiBit-BRM fusion protein) turn out when `CN(CCNC(=O)CCCOCC[C@H](NC(=O)c1ccn(S(C)(=O)=O)c1)C(=O)Nc1nc(-c2ccccc2)cs1)CCNC(=O)COc1cccc2c1C(=O)N(C1CCC(=O)NC1=O)C2=O.O=CO` (stereo partly drawn) [Compound 252, (2S)-4-[3-[(2-[[2-(2-[[2-(2,6-dioxopiperidin-3-yl)-1,3-dioxoisoindol-4-yl]oxy]acetamido)ethyl](methyl)amino]ethyl)carbamoyl]propoxy]-2-[(1-methanesulfonylpyrrol-3-yl)formamido]-N-(4-phenyl-1,3-thiazol-2-yl)butanamide; formic acid] was run?
A: > 10 µM

Q: What about the “BRM HiBit Degradation Maximum measured” value (HiBit-BRM fusion protein) of the same compound?
A: C (‘C’ = Maximum degradation <50%)

Q: What about the DC50 [1] of the same compound?
A: > 10 µM

Q: And the Dmax [1]?
A: < 50%

Q: `CS(=O)(=O)n1ccc(C(=O)N[C@@H](COCc2ccc(C(=O)NCCOc3cccc(OCCNc4cccc5c4C(=O)N(C4CCC(=O)NC4=O)C5=O)c3)cc2)C(=O)Nc2nc(-c3ccccc3)cs2)c1` (stereo partly drawn) [Compound 206, N-[2-[3-(2-[[2-(2,6-dioxopiperidin-3-yl)-1,3-dioxoisoindol-4-yl]amino]ethoxy)phenoxy]ethyl]-4-[[(2S)-2-[(1-methanesulfonylpyrrol-3-yl)formamido]-2-[(4-phenyl-1,3-thiazol-2-yl)carbamoyl]ethoxy]methyl]benzamide] was tested. Which DC50 (HiBit-BRM fusion protein) did it give?
A: > 10 µM

Q: And the “BRM HiBit Degradation Maximum measured” value (HiBit-BRM fusion protein)?
A: C (‘C’ = Maximum degradation <50%)

Q: And the DC50 [1]?
A: > 10 µM

Q: What about the Dmax [1] of the same compound?
A: < 50%

Q: `CS(=O)(=O)n1ccc(C(=O)N[C@@H](CCOCCCC(=O)N2CCC3(CC2)CC(Oc2ccc4c(c2)C(=O)N(C2CCC(=O)NC2=O)C4=O)C3)C(=O)Nc2nc(-c3ccccc3)cs2)c1` (stereo partly drawn) [Compound 262, (2S)-4-[4-(2-[[2-(2,6-dioxopiperidin-3-yl)-1,3-dioxoisoindol-5-yl]oxy]-7-azaspiro[3.5]nonan-7-yl)-4-oxobutoxy]-2-[(1-methanesulfonylpyrrol-3-yl)formamido]-N-(4-phenyl-1,3-thiazol-2-yl)butanamide] was tested. Which DC50 (HiBit-BRM fusion protein) did it give?
A: > 10 µM

Q: What about the “BRM HiBit Degradation Maximum measured” value (HiBit-BRM fusion protein) of the same compound?
A: C (‘C’ = Maximum degradation <50%)

Q: And the DC50 [1]?
A: > 10 µM

Q: And the Dmax [1]?
A: < 50%

Q: With `Cc1ncsc1-c1ccc(CNC(=O)[C@@H]2C[C@@H](O)CN2C(=O)[C@@H](NC(=O)COCCOCCNC(=O)c2ccc(COC[C@H](NC(=O)c3ccn(S(C)(=O)=O)c3)C(=O)Nc3nc(-c4ccccc4)cs3)cc2)C(C)(C)C)cc1` [Compound 188, (2S,4R)-4-hydroxy-1-[(2S)-2-[2-(2-[2-[(4-[[(2S)-2-[(1-methanesulfonylpyrrol-3-yl)formamido]-2-[(4-phenyl-1,3-thiazol-2-yl)carbamoyl]ethoxy]methyl]phenyl)formamido]ethoxy]ethoxy)acetamido]-3,3-dimethylbutanoyl]-N-[[4-(4-methyl-1,3-thiazol-5-yl)phenyl]methyl]pyrrolidine-2-carboxamide] as the compound, how does the DC50 (HiBit-BRM fusion protein) read?
A: > 10 µM

Q: And the “BRM HiBit Degradation Maximum measured” value (HiBit-BRM fusion protein)?
A: C (‘C’ = Maximum degradation <50%)

Q: What about the DC50 [1] of the same compound?
A: 1 to 10 µM

Q: And the Dmax [1]?
A: 50 to 75%

Q: Which DC50 (HiBit-BRM fusion protein) does the source give for `Cc1ncsc1-c1ccc(CNC(=O)[C@@H]2C[C@@H](O)CN2C(=O)[C@@H](NC(=O)CCCCCCCCC(=O)NCCCC[C@H](NC(=O)c2ccn(S(C)(=O)=O)c2)C(=O)Nc2nc(-c3ccccc3)cs2)C(C)(C)C)cc1` [Compound 268] here?
A: > 10 µM

Q: And the “BRM HiBit Degradation Maximum measured” value (HiBit-BRM fusion protein)?
A: C (‘C’ = Maximum degradation <50%)

Q: And the DC50 [1]?
A: > 10 µM

Q: What about the Dmax [1] of the same compound?
A: < 50%

Q: With `CS(=O)(=O)n1ccc(C(=O)NCC(=O)Nc2nc(-c3cccc(-c4ccnc(C5(C(=O)N6CCC7(CC6)CC(Oc6ccc8c(c6)C(=O)N(C6CCC(=O)NC6=O)C8=O)C7)CC5)c4)c3)cs2)c1` (centres unmarked) [Compound 151, N-[4-(3-[2-[1-(2-[[2-(2,6-dioxopiperidin-3-yl)-1,3-dioxoisoindol-5-yl]oxy]-7-azaspiro[3.5]nonane-7-carbonyl)cyclopropyl]pyridin-4-yl]phenyl)-1,3-thiazol-2-yl]-2-[(1-methanesulfonylpyrrol-3-yl)formamido]acetamide] as the compound, how does the DC50 (HiBit-BRM fusion protein) read?
A: > 10 µM

Q: What about the “BRM HiBit Degradation Maximum measured” value (HiBit-BRM fusion protein) of the same compound?
A: C (‘C’ = Maximum degradation <50%)

Q: What about the DC50 [1] of the same compound?
A: < 0.1 µM

Q: What about the Dmax [1] of the same compound?
A: 50 to 75%

Q: Which DC50 (HiBit-BRM fusion protein) does the source give for `Cc1cc(C(=O)NCC(=O)Nc2nc(-c3cccc(-c4ccnc(N(C)CC(=O)N5CCC(C6CCN(C(=O)COc7cccc8c7C(=O)N(C7CCC(=O)NC7=O)C8=O)CC6)CC5)c4)c3)cs2)cn1S(C)(=O)=O` (centres unmarked) [Compound 130, N-[2-[[4-[3-[2-[[2-[4-[1-[2-[2-(2,6-dioxo-3-piperidyl)-1,3-dioxo-isoindolin-4-yl]oxyacetyl]-4-piperidyl]-1-piperidyl]-2-oxo-ethyl]-methyl-amino]-4-pyridyl]phenyl]thiazol-2-yl]amino]-2-oxo-ethyl]-5-methyl-1-methylsulfonyl-pyrrole-3-carboxamide] here?
A: > 10 µM

Q: And the “BRM HiBit Degradation Maximum measured” value (HiBit-BRM fusion protein)?
A: C (‘C’ = Maximum degradation <50%)

Q: And the DC50 [1]?
A: > 10 µM

Q: And the Dmax [1]?
A: < 50%

Q: What does the source list for `Cc1ncsc1-c1ccc(CNC(=O)[C@@H]2C[C@@H](O)CN2C(=O)[C@@H](NC(=O)CCCCCC(=O)NCCOc2cc(-c3cccc(-c4csc(NC(=O)CNC(=O)c5ccn(S(C)(=O)=O)c5)n4)c3)ccn2)C(C)(C)C)cc1` [Compound 85, N1-((S)-1-((2S,4R)-4-hydroxy-2-((4-(4-methylthiazol-5-yl)benzyl)carbamoyl)pyrrolidin-1-yl)-3,3-dimethyl-1-oxobutan-2-yl)-N7-(2-((4-(3-(2-(2-(1-(methylsulfonyl)-1H-pyrrole-3-carboxamido)acetamido)thiazol-4-yl)phenyl)pyridin-2-yl)oxy)ethyl)heptanediamide]?
A: DC50 (HiBit-BRM fusion protein): 0.1 to 1 µM; BRM HiBit Degradation Maximum measured (HiBit-BRM fusion protein): A (‘A’ = Maximum degradation >75%); DC50 [1]: 0.1 to 1 µM; Dmax [1]: > 75%

Q: For `CS(=O)(=O)n1ccc(C(=O)N[C@@H](CCCCNC(=O)CCOCCOCCNc2ccc3c(c2)C(=O)N(C2CCC(=O)NC2=O)C3=O)C(=O)Nc2nc(-c3ccccc3)cs2)c1` (stereo partly drawn) [Compound 292, (2S)-6-[3-[2-(2-[[2-(2,6-dioxopiperidin-3-yl)-1,3-dioxoisoindol-5-yl]amino]ethoxy)ethoxy]propanamido]-2-[(1-methanesulfonylpyrrol-3-yl)formamido]-N-(4-phenyl-1,3-thiazol-2-yl)hexanamide], which DC50 (HiBit-BRM fusion protein) is on record?
A: > 10 µM

Q: What about the “BRM HiBit Degradation Maximum measured” value (HiBit-BRM fusion protein) of the same compound?
A: C (‘C’ = Maximum degradation <50%)

Q: What about the DC50 [1] of the same compound?
A: > 10 µM

Q: And the Dmax [1]?
A: < 50%
